The values that follow come from patent US9518065B2, “IRAK inhibitors and uses thereof” (NIMBUS IRIS, INC., priority 2013, dated 2016).

The target in assay [1] is T1, IRAK4 (Homo sapiens, UniProt Q9NWZ3).
T1 construct: purchased CARNA Bioscience 09-145
T1 sequence (Q9NWZ3 1-460): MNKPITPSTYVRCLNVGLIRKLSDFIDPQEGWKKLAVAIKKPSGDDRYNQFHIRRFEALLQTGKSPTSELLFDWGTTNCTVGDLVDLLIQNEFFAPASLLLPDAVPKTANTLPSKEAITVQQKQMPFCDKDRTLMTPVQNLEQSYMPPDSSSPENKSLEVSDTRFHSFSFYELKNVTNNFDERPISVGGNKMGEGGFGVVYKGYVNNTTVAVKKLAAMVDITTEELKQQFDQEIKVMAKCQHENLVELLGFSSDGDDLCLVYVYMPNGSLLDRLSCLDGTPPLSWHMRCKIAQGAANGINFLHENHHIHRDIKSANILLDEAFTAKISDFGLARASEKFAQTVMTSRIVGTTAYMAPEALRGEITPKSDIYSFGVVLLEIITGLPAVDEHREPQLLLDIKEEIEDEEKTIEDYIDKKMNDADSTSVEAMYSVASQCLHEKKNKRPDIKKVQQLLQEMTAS
Kind of assay: IRAK-4 activity inhibition assay (Caliper). The assay is classed as biochemical. As to conditions: 3.5 nM IRAK4, 37 μM ATP, 1.5 μM Peptide 8. The procedure:
A 1× kinase base buffer was prepared from 50 mM HEPES, pH 7.5 and 0.0015% Brij-35. A stop buffer was prepared from 100 mM HEPES, pH 7.5, 0.015% Brij-35, 0.2% Coating Reagent #3, and 50 mM EDTA.
Test compound was diluted to 50× of the final desired highest inhibitor concentration in reaction by 100% DMSO. 100 ul of this compound dilution was transferred to a well in a 96-well plate. For example, if desired highest inhibitor concentration in IC50 determination is 100 uM, then prepare 5000 uM of compound DMSO solution in this step.
Test compound was serially diluted by transferring 30 μl to 60 μl of 100% DMSO in the next well and so forth for a total of 10 concentrations. 100 μl of 100% DMSO was added to two empty wells for no compound control and no enzyme control in the same 96-well plate.
A new 96-well plate was marked as intermediate plate. 5 μl of compound serial dilution was transferred from source plate to the corresponding wells of the intermediate plate. 45 μl of 1× kinase base buffer (KB buffer) was added to each well of the intermediate plate. The intermediate plate was placed for 10 min on a shaker.
5 μl of each well was transferred from the 96-well intermediate plate to a 384-well plate in duplicates. For example, A1 of the 96-well plate is transferred to A1 and A2 of the 384-well plate. A2 of the 96-well plate is transferred to A3 and A4 of the 384-well plate, and so on.
IRAK4 and DTT in 1× kinase base buffer was added. The 2.5× enzyme mix contained 8.8 nM IRAK4 and 5 mM DTT.
Peptide 8, ATP, MgCl2 and MnCl2 were added in the 1× kinase base buffer. The 2.5× peptide mix contained 3.75 μM peptide 8, 92.5 μM ATP, 12.5 mM MgCl2 and 2.5 mM MnCl2.
Assay plate already contained 5 μl of compound in 10% DMSO. Added 10 μl of 2.5× enzyme solution to each well of the 384-well assay plate, except no enzyme control wells. The final concentration of IRAK4 in reaction was 3.5 nM. Added 10 μl of 1× kinase base buffer to no enzyme control wells in the assay plate. Incubated at room temperature for 10 min.
Added 10 μl of 2.5× peptide solution to each well of the 384-well assay plate. The final concentration of Peptide 8 and ATP was 1.5 μM and 37 μM, respectively. Incubated at 28° C. for 40 minutes. Added 25 μl of stop buffer to stop reaction. Collected data on Caliper.
Copied conversion % data from Caliper program. Converted conversion % values to percent inhibition values. Percent inhibition=(max-conversion %)/(max-min)*100, where “max” means the conversion % of DMSO control and “min” means the conversion % of no enzyme control.
The compound numbers correspond to the compound numbers in Table 1. Compounds having an activity designated as “A” provided an IC50≦1 μM; compounds having an activity designated as “B” provided an IC50 of 1-5 μM; compounds having an activity designated as “C” provided an IC50 of ≧5 μM. “NA” stands for “not assayed.”

The subject of assay [2] is TNFα and IL8 production in THP-1 cells. Kind of assay: LPS induced cytokine (TNFα and IL8) production assay in THP-1 cells. It is filed as cell-based. Conditions: Homo sapiens, 300 ng/mL LPS. The procedure:
Provided compounds were also assayed in an LPS (Lipopolysacharide) or R848 (TLR-7 agonist) induced cytokine (TNFα and IL8) production assay in THP-1 cells, human white blood cells (hWBC), and whole blood. The exemplary protocol for this assay in THP-1 cells was as follows below.
THP-1 cells from ATCC (TIB-202) were cultured in RPMI Medium 1640 (Invitrogen, Cat No. A10491-01), 10% fetal bovine serum (Invitrogen, Cat No. 10099141, Lot No. 8172882) containing 100 U/mL Penicillin, 100 μg/mL streptomycin (Invitrogen, Cat No. 15140-122), and 50 uM 2-Mercaptoethanol (Invitrogen, Cat No. 21985023). LPS-EK ultra pure (Invivogen, Cat No. tlrl-peklps) was used to induce IL8 and TNFα production, that was detected in the cell culture supernatant by IL8 HTRF kit (Cisbio, Cat No. 62IL8PEB) and TNFα HTRF kit (Cisbio, Cat No. 62TNFPEB), as per manufacturer instructions. Cells were cultured in 96 well assay plates at 100,000 cells per well, and compounds diluted in final 0.3% DMSO were pre-incubated with cells for 1 hour prior to stimulation with 300 ng/mL LPS. Cytokine production in cell supernatant was measured at 5 hours for TNFα and IL8 production, and for 16 hours for IL8 production and assessment of cell viability.
The compound numbers correspond to the compound numbers in Table 1. […] “NA” stands for “not assayed.”

The mark [3] stands for this setting: 5 hours, read-out: TNFα production IC50.
Setting [4] is: 16 hours, read-out: IL8 (16 h) production IC50.

Like-named read-outs stand apart in the source and are kept apart here.

As for `CCc1nc2c(N[C@H]3CC[C@H](N4CCOCC4)CC3)nc(Nc3cnn(C(C)C)c3)nc2s1` [Compound I-8, 2-ethyl-N5-(1-isopropyl-1H-pyrazol-4-yl)-N7-((1r,4r)-4-morpholinocyclohexyl)thiazolo[5,4-d]pyrimidine-5,7-diamine], the IC50 in assay [1] was at most 1000 nM; in assay [2] (setting [3]) it was at most 250 nM; in assay [2] (setting [4]) it was at most 250 nM.
In the case of `CCc1nc2c(N[C@H]3CC[C@H](N4CCOCC4)CC3)nc(Nc3cnn(C4CCS(=O)(=O)CC4)c3)nc2s1` [Compound I-10, 4-(4-((2-ethyl-7-(((1r,4r)-4-morpholino-cyclohexyl)amino)-thiazolo[5,4-d]pyrimidin-5-yl)amino)-1H-pyrazol-1-yl)tetrahydro-2H-thiopyran 1,1-dioxide], the IC50 was at most 1000 nM in assay [1], at most 250 nM in assay [2] (setting [3]) and at most 250 nM in assay [2] (setting [4]).
As for `CCc1nc2c(N[C@H]3CC[C@@H](N4CCC(F)(F)CC4)CC3)nc(Nc3cnn(C)c3)nc2s1` [Compound I-12, N7-((1s,4s)-4-(4,4-difluoropiperidin-1-yl)cyclohexyl)-2-ethyl-N5-(1-methyl-4H-pyrazol-4-yl)thiazolo[5,4-d]pyrimidine-5,7-diamine], the values for the IC50 in assay [1], in assay [2] (setting [3]) and in assay [2] (setting [4]) were at most 1000 nM, 250 to 500 nM and 250 to 500 nM, respectively.
Regarding `CCc1nc2c(N[C@H]3CC[C@H](N4CCC5(CC4)COC5)CC3)nc(Nc3cnn(C)c3)nc2s1` [Compound I-13, N7-((1r,4r)-4-(2-oxa-7-azaspiro[3.5]nonan-7-yl)cyclohexyl)-2-ethyl-N5-(1-methyl-1H-pyrazol-4-yl)thiazolo[5,4-d]pyrimidine-5,7-diamine], the results for the IC50 in assay [1], in assay [2] (setting [3]) and in assay [2] (setting [4]) were at most 1000 nM, at most 250 nM and at most 250 nM, respectively.
`CCc1nc2c(N[C@H]3CC[C@H](N4CCC5(CC4)COC5)CC3)nc(Nc3cnn(C4CCOCC4)c3)nc2s1` [Compound I-14, N7-((1r,4r)-4-(2-oxa-7-azaspiro[3.5]nonan-7-yl)cyclohexyl)-2-ethyl-N5-(1-(tetrahydro-2H-pyran-4-yl)-1H-pyrazol-4-yl)thiazolo[5,4-d]pyrimidine-5,7-diamine]: the IC50 in assay [1] is at most 1000 nM; in assay [2] (setting [3]), at most 250 nM; in assay [2] (setting [4]), at most 250 nM.
On to `CCc1nc2c(N[C@H]3CC[C@H](N4CCC(O)CC4)CC3)nc(Nc3cnn(C4CCOCC4)c3)nc2s1` [Compound I-16], for which the IC50 in assay [1] was at most 1000 nM; in assay [2] (setting [3]), at most 250 nM.
For the compound `CCc1nc2c(N[C@H]3CC[C@H](N4CCC(O)CC4)CC3)nc(Nc3cnn(C)c3)nc2s1` [Compound I-17, 1-((1r,4r)-4-((2-ethyl-5-((1-methyl-1H-pyrazol-4-yl)amino)-thiazolo[5,4-d]pyrimidin-7-yl)amino)cyclohexyl)piperidin-4-ol], the IC50 in assay [1] is at most 1000 nM; in assay [2] (setting [3]), at most 250 nM.
Regarding `CCc1nc2c(N[C@H]3CC[C@H](N4CCOCC4)CC3)nc(Nc3cnn(CC4CCOCC4)c3)nc2s1` [Compound I-18, 2-ethyl-N7-((1r,4r)-4-morpholinocyclohexyl)-N5-(1-((tetrahydro-2H-pyran-4-yl)methyl)-1H-pyrazol-4-yl)thiazolo[5,4-d]pyrimidine-5,7-diamine], the IC50 in assay [1] was at most 1000 nM; in assay [2] (setting [3]), at most 250 nM; in assay [2] (setting [4]), at most 250 nM.
With `CCc1nc2c(N[C@H]3CC[C@H](N4CCC(F)(F)CC4)CC3)nc(Nc3cnn(C4CCOCC4)c3)nc2s1` [Compound I-19, 2-ethyl-5-N-[1-(oxan-4-yl)-1H-pyrazol-4-yl]-7-N-[trans-4-(4,4-difluoropiperidin-1-yl)cyclohexyl]-[1,3]thiazolo[5,4-d]pyrimidine-5,7-diamine], the half-maximal inhibitory concentration (IC50) is at most 1000 nM in assay [1] and at most 250 nM in assay [2] (setting [3]).
Take `CCc1nc2c(N[C@H]3CC[C@H](N4CCC5(CC4)CC5)CC3)nc(Nc3cnn(C)c3)nc2s1` [Compound I-21, N7((1r,4r)-4-(6-azaspiro[2.5]octan-6-yl)cyclohexyl)-2-ethyl-N5-(1-methyl-1H-pyrazol-4-yl)thiazolo[5,4-d]pyrimidine-5,7-diamine]: the values for the IC50 in assay [1], in assay [2] (setting [3]) and in assay [2] (setting [4]) were at most 1000 nM, at most 250 nM and at most 250 nM, respectively.
For `CCc1nc2c(N[C@H]3CC[C@H](N4CCOCC4)CC3)nc(Nc3cnn(CC)c3)nc2s1` [Compound I-22, 2-ethyl-N5-(1-ethyl-1H-pyrazol-4-yl)-N7-((1r,4r)-4-morpholino-cyclohexyl)thiazolo[5,4-d]pyrimidine-5,7-diamine], the IC50 was at most 1000 nM in assay [1], 250 to 500 nM in assay [2] (setting [3]) and at most 250 nM in assay [2] (setting [4]).
For `CCc1nc2c(N[C@H]3CC[C@H](N4CCC5(CC4)CC5)CC3)nc(Nc3cnn(C4CCOCC4)c3)nc2s1` [Compound I-23, N7-((1r,4r)-4-(6-azaspiro[2.5]octan-6-yl)cyclohexyl)-2-ethyl-N5-(1-(tetrahydro-2H-pyran-4-yl)-1H-pyrazol-4-yl)thiazolo[5,4-d]pyrimidine-5,7-diamine], the IC50 in assay [1] is at most 1000 nM; in assay [2] (setting [3]), 250 to 500 nM; in assay [2] (setting [4]) it was at most 250 nM.
On to `Cc1nc2c(N[C@H]3CC[C@H](N4CCOCC4)CC3)nc(Nc3cnn(C4CCOCC4)c3)nc2s1` [Compound I-25, 2-methyl-N7-((1r,4r)-4-morpholinocyclohexyl)-N5-(1-(tetrahydro-2H-pyran-4-yl)-1H-pyrazol-4-yl)thiazolo[5,4-d]pyrimidine-5,7-diamine], for which the IC50 was at most 1000 nM in assay [1], at most 250 nM in assay [2] (setting [3]) and at most 250 nM in assay [2] (setting [4]).
With `CCc1nc2c(O[C@H]3CC[C@H](N4CCOCC4)CC3)nc(Nc3cnn(C4CCOCC4)c3)nc2s1` [Compound I-26, 2-ethyl-7-(((1r,4r)-4-morpholinocyclohexyl)oxy)-N-(1-(tetrahydro-2H-pyran-4-yl)-1H-pyrazol-4-yl)thiazolo[5,4-d]pyrimidin-5-amine], the results for the IC50 in assay [1], in assay [2] (setting [3]) and in assay [2] (setting [4]) were at most 1000 nM, at most 250 nM and at most 250 nM, respectively.
